Like-named read-outs stand apart in the source and are kept apart here.
Biological target: T1, recombinant human NaV1.8 stably transfected HEK cells (Homo sapiens, UniProt Q9Y5Y9)
T1 construct: expressed in transfected cells; host or cells: HEK cells, stably transfected
Assay: Compound profiling on NaV1.8, human NaV1.8 cell line, SyncroPatch384PE automated patch clamp assay (Example 102, first set of compounds, Table 16)
Assay type: cell-based
Settings: human NaV1.8 HEK cells, Table 16 (first set of compounds)
Procedure, shortened: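 IC50s come from two read-outs: resting-state block (P1, 10 mV step from −120 mV) and inactivated-state block (P2, after 10 s at −40 mV), scaled between DMSO and 250 μM tetracaine. Compounds (20–0.001 μM final, 1:3 steps) were applied for 5 min, 15 s sweeps. Cells kept at 30 °C the day before.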

[1] = inactivated state block (P2 measurement), read-out: P2IC50
[2] = resting state block (P1 measurement), read-out: P1IC50

T1 sequence (Q9Y5Y9 whole entry): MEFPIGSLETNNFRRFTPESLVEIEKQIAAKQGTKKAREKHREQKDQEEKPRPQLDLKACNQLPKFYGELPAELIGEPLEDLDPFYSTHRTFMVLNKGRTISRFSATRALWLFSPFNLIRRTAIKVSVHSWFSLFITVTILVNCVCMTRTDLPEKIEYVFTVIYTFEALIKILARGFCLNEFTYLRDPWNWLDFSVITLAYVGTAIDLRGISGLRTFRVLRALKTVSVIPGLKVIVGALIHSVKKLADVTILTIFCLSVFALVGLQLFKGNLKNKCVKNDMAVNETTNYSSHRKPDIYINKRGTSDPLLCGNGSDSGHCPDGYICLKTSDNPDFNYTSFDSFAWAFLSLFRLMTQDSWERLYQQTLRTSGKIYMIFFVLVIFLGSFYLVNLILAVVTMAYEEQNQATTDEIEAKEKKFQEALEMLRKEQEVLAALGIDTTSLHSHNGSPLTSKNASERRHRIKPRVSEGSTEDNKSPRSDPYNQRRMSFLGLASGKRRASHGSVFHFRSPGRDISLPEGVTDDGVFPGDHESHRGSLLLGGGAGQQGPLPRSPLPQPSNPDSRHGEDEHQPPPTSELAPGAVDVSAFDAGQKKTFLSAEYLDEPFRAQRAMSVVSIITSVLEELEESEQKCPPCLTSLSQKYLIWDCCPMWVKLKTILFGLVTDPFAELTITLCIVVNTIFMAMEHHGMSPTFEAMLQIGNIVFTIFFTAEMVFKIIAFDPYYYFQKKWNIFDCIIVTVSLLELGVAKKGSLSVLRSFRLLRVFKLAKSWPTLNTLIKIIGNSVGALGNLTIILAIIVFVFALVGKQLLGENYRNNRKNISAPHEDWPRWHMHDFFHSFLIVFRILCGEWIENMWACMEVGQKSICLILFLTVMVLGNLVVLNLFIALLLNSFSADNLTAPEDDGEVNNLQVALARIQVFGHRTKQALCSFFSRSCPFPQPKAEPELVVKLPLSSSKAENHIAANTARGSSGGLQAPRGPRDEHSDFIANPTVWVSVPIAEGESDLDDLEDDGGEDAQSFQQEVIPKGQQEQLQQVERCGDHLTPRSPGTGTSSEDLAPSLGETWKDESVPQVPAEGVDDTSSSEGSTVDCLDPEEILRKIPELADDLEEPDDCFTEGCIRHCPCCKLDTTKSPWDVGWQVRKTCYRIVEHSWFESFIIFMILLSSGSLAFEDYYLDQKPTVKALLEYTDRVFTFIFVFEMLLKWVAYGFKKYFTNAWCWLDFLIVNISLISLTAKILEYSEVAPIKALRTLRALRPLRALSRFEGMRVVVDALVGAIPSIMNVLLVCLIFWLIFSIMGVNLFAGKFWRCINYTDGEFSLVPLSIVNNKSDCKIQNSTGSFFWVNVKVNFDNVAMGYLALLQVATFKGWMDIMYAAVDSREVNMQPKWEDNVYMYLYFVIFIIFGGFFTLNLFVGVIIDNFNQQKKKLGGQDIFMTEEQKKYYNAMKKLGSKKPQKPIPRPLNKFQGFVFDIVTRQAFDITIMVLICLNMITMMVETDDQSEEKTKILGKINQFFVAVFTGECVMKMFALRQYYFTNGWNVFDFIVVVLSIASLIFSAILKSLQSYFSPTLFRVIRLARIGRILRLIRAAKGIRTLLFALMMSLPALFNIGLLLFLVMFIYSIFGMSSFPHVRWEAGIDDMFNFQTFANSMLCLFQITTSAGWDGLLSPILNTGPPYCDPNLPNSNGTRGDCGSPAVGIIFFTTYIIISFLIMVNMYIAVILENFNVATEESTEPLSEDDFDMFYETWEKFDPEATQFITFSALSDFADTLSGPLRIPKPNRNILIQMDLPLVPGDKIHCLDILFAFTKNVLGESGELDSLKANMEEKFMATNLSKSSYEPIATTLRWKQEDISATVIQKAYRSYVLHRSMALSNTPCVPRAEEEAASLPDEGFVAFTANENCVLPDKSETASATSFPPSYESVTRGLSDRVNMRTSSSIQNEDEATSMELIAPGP

Row | SMILES | IC50 [1] [nM] | IC50 [2] [nM]
1 | COc1cc(C#N)ccc1Oc1nnc(-c2ccnnc2)c(C)c1C(=O)Nc1cccc(S(C)(=N)=O)c1 (stereo not shown) [Compound 1456, 3-(4-cyano-2-methoxy-phenoxy)-5-methyl-N-[3-(methylsulfonimidoyl)phenyl]-6-pyridazin-4-yl-pyridazine-4-carboxamide] | 200 to 500 | 200 to 500
2 | CS(=O)(=O)c1cccc(NC(=O)c2cc(C(F)(F)F)cnc2OC2CCC(=O)NC2)c1 (stereo not shown) [Compound 1606] | 200 to 500 | 200 to 500
3 | COc1cc(C#N)ccc1Oc1nnc(-c2cccc(C#N)c2)c(C)c1C(=O)Nc1cccc(S(C)(=N)=O)c1 (stereo not shown) [Compound 1451, 3-(4-cyano-2-methoxy-phenoxy)-6-(3-cyanophenyl)-5-methyl-N-[3-(methylsulfonimidoyl)phenyl]pyridazine-4-carboxamide] | 200 to 500 | 200 to 500
4 | CS(=O)(=O)c1cccc(NC(=O)c2cc(C(F)(F)F)cnc2OCC23CC(F)(C2)C3)c1 [Compound 1629] | 40 to 200 | 40 to 200
5 | Cc1cc(F)ccc1Oc1nnc(C(F)(F)F)c(NC2CNC2)c1C(=O)Nc1cccc([S@@](C)(=N)=O)c1 [Compound 1523, (S)-5-(azetidin-3-ylamino)-3-(4-fluoro-2-methylphenoxy)-N-(3-(S-methylsulfonimidoyl)phenyl)-6-(trifluoromethyl)pyridazine-4-carboxamide] | 200 to 500 | 200 to 500
6 | Cc1ccc(Oc2ncc(C(F)(F)F)cc2C(=O)Nc2cccc(C(N)=O)c2)c(OC(F)F)n1 [Compound 1691] | 40 to 200 | 40 to 200
7 | Cc1c(C#N)ccc(Oc2ncc(C(F)(F)F)cc2C(=O)Nc2cccc(C(N)=O)c2)c1F [Compound 1697] | 20 to 40 | 20 to 40
8 | COc1cc(C#N)ccc1Oc1nnc(-c2ccc(C(F)F)cc2)c(C)c1C(=O)Nc1cccc([S@](C)(=N)=O)c1 [Compound 1534, 3-(4-cyano-2-methoxyphenoxy)-6-[4-(difluoromethyl)phenyl]-N-{3-[(R)-imino(methyl)oxo-λ^6-sulfanyl]phenyl}-5-methylpyridazine-4-carboxamide] | 20 to 40 | 20 to 40
9 | Cc1nc(F)ccc1Oc1ncc(C(F)(F)F)c(C)c1C(=O)Nc1cccc([S@@](C)(=N)=O)c1 [Compound 1560, (S)-2-((6-fluoro-2-methylpyridin-3-yl)oxy)-4-methyl-N-(3-(S-methylsulfonimidoyl)phenyl)-5-(trifluoromethyl)nicotinamide] | ≤ 20 | ≤ 20
10 | Cc1cc(F)ccc1Oc1nncc(C)c1C(=O)Nc1cccc(S(C)(=N)=O)c1 (stereo not shown) [Compound 1553, 3-(4-fluoro-2-methyl-phenoxy)-5-methyl-N-[3-(methylsulfonimidoyl)phenyl]pyridazine-4-carboxamide] | 200 to 500 | 200 to 500
11 | NC(=O)c1ccc(NC(=O)c2cc(C(F)(F)F)cnc2OC2CC(C(F)(F)F)C2)cc1 (mixture of isomers) [Compound 1670] | 200 to 500 | 200 to 500
12 | CC(C)Oc1ccc(Oc2ncc(C(F)(F)F)cc2C(=O)Nc2ccc(-c3ncc[nH]3)cc2)c(F)c1F [Compound 1649] | 200 to 500 | 200 to 500
13 | Cc1nc(OC2CCC2)ccc1Oc1nnc(C(F)(F)F)c(C)c1C(=O)Nc1cccc(S(C)(=N)=O)c1 (single isomer, unassigned) [Compound 1499, 3-((6-cyclobutoxy-2-methylpyridin-3-yl)oxy)-5-methyl-N-(3-(S-methylsulfonimidoyl)phenyl)-6-(trifluoromethyl)pyridazine-4-carboxamide] | 40 to 200 | 40 to 200
14 | CS(=N)(=O)c1cccc(NC(=O)c2cc(C(F)(F)F)cnc2Oc2cccnc2OC(F)(F)F)c1 (single isomer, unassigned) [Compound 1642] | ≤ 20 | ≤ 20
15 | COc1ccc(C#N)cc1Oc1ncc(C(F)(F)F)cc1C(=O)Nc1cccc(S(C)(=N)=O)c1 (stereo not shown) [Compound 1620] | 200 to 500 | 200 to 500
16 | COc1c(Oc2nc(C(F)(F)F)ccc2C(=O)Nc2cccc(S(C)(=N)=O)c2)ccc(F)c1F (stereo not shown) [Compound 1729, 2-(3,4-difluoro-2-methoxy-phenoxy)-N-[3-(methylsulfonimidoyl)phenyl]-6-(trifluoromethyl)pyridine-3-carboxamide] | ≤ 20 | ≤ 20
17 | CS(=O)(=O)c1cccc(NC(=O)c2cc(C(F)(F)F)cnc2OC2CCC(F)(F)CC2)c1 [Compound 1660] | 40 to 200 | 40 to 200

Next, values leading:

Row | IC50 [1] [nM] | IC50 [2] [nM] | SMILES
18 | 40 to 200 | 40 to 200 | COc1ccc(Oc2nnc(C(F)(F)F)c(C)c2C(=O)Nc2cccc(S(C)(=O)=O)c2)c(C)n1 [Compound 1428]
19 | 200 to 500 | 200 to 500 | COc1cc(C#N)ccc1Oc1nnc(C2=CCN(C)CC2)c(C)c1C(=O)Nc1cccc(S(C)(=N)=O)c1 (stereo not shown) [Compound 1555, 3-(4-cyano-2-methoxy-phenoxy)-5-methyl-6-(1-methyl-3,6-dihydro-2H-pyridin-4-yl)-N-[3-(methylsulfonimidoyl)phenyl]pyridazine-4-carboxamide]
20 | 200 to 500 | 200 to 500 | COc1cc(C#N)ccc1Oc1nnc(C(F)(F)F)c(C)c1C(=O)Nc1cccc(C(=O)NCC2(F)CC2)c1 [Compound 1440, 3-(4-cyano-2-methoxy-phenoxy)-N-[3-[(1-fluorocyclopropyl)methylcarbamoyl]phenyl]-5-methyl-6-(trifluoromethyl)pyridazine-4-carboxamide]
21 | 200 to 500 | 200 to 500 | COc1cc(C#N)ccc1Oc1nnc(C(F)(F)F)c(C)c1C(=O)Nc1cccc(C(=O)NC2CCCC2C#N)c1 (stereo not shown) [Compound 1445, N-[3-[(2-cyanocyclopentyl)carbamoyl]phenyl]-3-(4-cyano-2-methoxy-phenoxy)-5-methyl-6-(trifluoromethyl)pyridazine-4-carboxamide]
22 | 200 to 500 | 200 to 500 | COc1cc(C#N)ccc1Oc1nnc(-c2cnc(C)s2)c(C)c1C(=O)Nc1cccc(S(C)(=N)=O)c1 (stereo not shown) [Compound 1449, 3-(4-cyano-2-methoxy-phenoxy)-5-methyl-N-[3-(methylsulfonimidoyl)phenyl]-6-(2-methylthiazol-5-yl)pyridazine-4-carboxamide]
23 | ≤ 20 | ≤ 20 | COc1c(Oc2nnc(C(F)(F)F)c(C)c2C(=O)Nc2cccc(C(N)=O)c2)ccc(F)c1F [Compound 1549, N-(3-carbamoylphenyl)-3-(3,4-difluoro-2-methoxy-phenoxy)-5-methyl-6-(trifluoromethyl)pyridazine-4-carboxamide]
24 | ≤ 20 | ≤ 20 | COc1cc(C#N)ccc1Oc1nnc(-c2cnc(C(F)(F)F)s2)c(C)c1C(=O)Nc1cccc(S(C)(=N)=O)c1 (stereo not shown) [Compound 1459, 3-(4-cyano-2-methoxy-phenoxy)-5-methyl-N-[3-(methylsulfonimidoyl)phenyl]-6-[2-(trifluoromethyl)thiazol-5-yl]pyridazine-4-carboxamide]
25 | 200 to 500 | 200 to 500 | COc1cc(C#N)ccc1Oc1nnc(C(F)(F)F)c(C)c1C(=O)Nc1ccc(OC)c(C(N)=O)c1 [Compound 1541, N-(3-carbamoyl-4-methoxy-phenyl)-3-(4-cyano-2-methoxy-phenoxy)-5-methyl-6-(trifluoromethyl)pyridazine-4-carboxamide]
26 | ≤ 20 | ≤ 20 | COc1c(Oc2nnc(C(F)(F)F)c(C)c2C(=O)Nc2cccc(S(C)(=O)=O)c2)ccc(F)c1F [Compound 1425]

From patent publication US20240336574A1 (LATIGO BIOTHERAPEUTICS, INC., priority 2021, published 2024)
